Data on 27 compounds can be found in patent US8309718B2, “4-pyrazolyl-N-arylpyrimidin-2-amines and 4-pyrazolyl-N-heteroarylpyrimidin-2-amines as janus kinase inhibitors” (Incyte Corporation, priority 2007, dated 2012).

The test addresses T1, human JAK2 (Homo sapiens, UniProt O60674).
T1 construct: JAK2 (a.a. 828-1132); His tag (N); made in house; host or cells: insect cells (baculovirus)
The test is described as follows: In vitro JAK kinase assay (HTRF, phosphorylation of biotinylated peptide). The format is biochemical. To be noted: catalytic domain a.a. 828-1132, 30 μM ATP, 500 nM peptide, room temperature 1 hr; read-out: JAK-2 IC50. Summed up:
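IC50 from HTRF detection (Eu-Py20 antibody, SA-APC) of biotinylated-peptide phosphorylation (500 nM), run 1 h at RT. Enzyme: N-His human JAK2 kinase domain a.a. 828-1132 from insect cells; ATP 30 μM; buffer 50 mM Tris pH 7.8 with NaCl, DTT, BSA.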
Background: Time-resolved FRET reads energy transfer from a long-lived donor to a nearby acceptor.

T1 sequence (O60674 828-1132): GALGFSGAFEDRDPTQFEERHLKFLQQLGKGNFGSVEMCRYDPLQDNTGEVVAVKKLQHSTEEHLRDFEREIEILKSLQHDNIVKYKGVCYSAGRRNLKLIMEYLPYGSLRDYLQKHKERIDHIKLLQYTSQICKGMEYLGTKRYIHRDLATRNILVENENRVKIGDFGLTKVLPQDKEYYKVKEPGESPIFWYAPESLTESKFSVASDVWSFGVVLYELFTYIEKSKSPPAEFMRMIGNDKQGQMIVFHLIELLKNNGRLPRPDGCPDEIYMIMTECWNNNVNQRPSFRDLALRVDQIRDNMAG

As to `COC1CCN(C(=O)c2ccc(Nc3nccc(-c4cnn(C(CC#N)C5CC5)c4)n3)cc2)CC1` (racemic) [Example 263, 3-cyclopropyl-3-(4-(2-(4-(4-methoxypiperidine-1-carbonyl)phenylamino)pyrimidin-4-yl)-1H-pyrazol-1-yl)propanenitrile], the IC50 was below 100 nM. As for `COc1cnc(Nc2cccc(C(=O)N3CCOCC3)c2)nc1-c1cnn(C(CC#N)C2CC2)c1` (racemic) [Example 328, 3-cyclopropyl-3-[4-(5-methoxy-2-{[3-(morpholin-4-ylcarbonyl)phenyl]amino}pyrimidin-4-yl)-1H-pyrazol-1-yl]propanenitrile], the IC50 is below 100 nM. Then `CN1CCN(C(=O)c2ccc(Nc3nccc(-c4cnn(C(CC#N)C5CC5)c4)n3)cc2)CC1` (racemic) [Example 267, 3-cyclopropyl-3-(4-(2-(4-(4-methylpiperazine-1-carbonyl)phenylamino)pyrimidin-4-yl)-1H-pyrazol-1-yl)propanenitrile], with below 100 nM; and `COc1cnc(Nc2cccc(C(=O)N3[C@@H]4CC[C@H]3C[C@@H](O)C4)c2)nc1-c1cnn(C(CC#N)C2CC2)c1` (mixture of isomers) [Example 332, 3-cyclopropyl-3-(4-{2-[(3-{[(3-endo)-3-hydroxy-8-azabicyclo[3.2.1]oct-8-yl]carbonyl}phenyl)amino]-5-methoxypyrimidin-4-yl}-1H-pyrazol-1-yl)propanenitrile], with below 100 nM; and `Cc1cnc(Nc2ccc(C(N)=O)cc2)nc1-c1cnn(C(CC#N)CC2CCN(S(=O)(=O)c3ccn(C)n3)CC2)c1` (racemic) [Example 53, 4-(4-(1-(1-cyano-3-(1-(1-methyl-1H-pyrazol-3-ylsulfonyl)piperidin-4-yl)propan-2-yl)-1H-pyrazol-4-yl)-5-methylpyrimidin-2-ylamino)benzamide], with below 100 nM.

As for `CC(=O)Nc1ccc(Nc2nccc(-c3cnn(C(CC#N)CC4CCN(S(=O)(=O)c5ccn(C)n5)CC4)c3)n2)cc1` (racemic) [Example 45, N-(4-(4-(1-(1-cyano-3-(1-(1-methyl-1H-pyrazol-3-ylsulfonyl)piperidin-4-yl)propan-2-yl)-1H-pyrazol-4-yl)pyrimidin-2-ylamino)phenyl)acetamide], the IC50 was below 100 nM.

With `COc1cnc(Nc2cccc(C(=O)NCc3cc(C)on3)c2)nc1-c1cnn(C(CC#N)C2CC2)c1` (racemic) [Example 333, 3-({4-[1-(2-cyano-1-cyclopropylethyl)-1H-pyrazol-4-yl]-5-methoxypyrimidin-2-yl}amino)-N-[(5-methylisoxazol-3-yl)methyl]benzamide], the IC50 is below 100 nM. Regarding `CCS(=O)(=O)N1CCC(CC(CC#N)n2cc(-c3ccnc(Nc4ccc(C(=O)N(C)C)cc4)n3)cn2)CC1` (racemic) [Example 46, 4-(4-(1-(1-cyano-3-(1-(ethylsulfonyl)piperidin-4-yl)propan-2-yl)-1H-pyrazol-4-yl)pyrimidin-2-ylamino)-N,N-dimethylbenzamide], the IC50 was below 100 nM. Then `N#CCC(C1CCCC1)n1cc(-c2ccnc(Nc3cccc(C(=O)N4CCOCC4)c3)n2)cn1` (racemic) [Example 147, 3-cyclopentyl-3-(4-(2-(3-(morpholine-4-carbonyl)phenylamino)pyrimidin-4-yl)-1H-pyrazol-1-yl)propanenitrile], with below 100 nM.

On to `CN(C(=O)c1ccc(Nc2nccc(-c3cnn(C(CC#N)C4CCCC4)c3)n2)cc1)C1CCOCC1` (racemic) [Example 218, 4-(4-(1-(2-cyano-1-cyclopentylethyl)-1H-pyrazol-4-yl)pyrimidin-2-ylamino)-N-methyl-N-(tetrahydro-2H-pyran-4-yl)benzamide], for which the IC50 was below 100 nM. Then `N#CCC(C1CCCC1)n1cc(-c2ccnc(Nc3ccc(N4CCNCC4)cc3)n2)cn1` (racemic) [Example 41, 3-cyclopentyl-3-(4-(2-(4-(piperazin-1-yl)phenylamino)pyrimidin-4-yl)-1H-pyrazol-1-yl)propanenitrile], with below 100 nM; and `N#CCC1(n2cc(-c3ccnc(Nc4ccc(C(=O)N5CCC5)cc4)n3)cn2)CC(C#N)C1` (single isomer, unassigned) [Example 292, 3-(4-(2-(4-(azetidine-1-carbonyl)phenylamino)pyrimidin-4-yl)-1H-pyrazol-1-yl)-3-(cyanomethyl)cyclobutanecarbonitrile], with below 100 nM; and `N#CCC1(n2cc(-c3ccnc(Nc4cccc(N5CCCC5=O)c4)n3)cn2)CC(C#N)C1` (single isomer, unassigned) [Example 348, 3-(cyanomethyl)-3-[4-(2-{[3-(2-oxopyrrolidin-1-yl)phenyl]amino}pyrimidin-4-yl)-1H-pyrazol-1-yl]cyclobutanecarbonitrile], with below 100 nM. For `N#CCC(CC1CCN(C(=O)c2ccc(F)cc2F)CC1)n1cc(-c2ccnc(Nc3ccc(N4CCOCC4)cc3)n2)cn1` (racemic) [Example 5, 4-(1-(2,4-difluorobenzoyl)piperidin-4-yl)-3-(4-(2-(4-morpholinophenylamino)pyrimidin-4-yl)-1H-pyrazol-1-yl)butanenitrile], the IC50 was below 100 nM. As to `COc1cnc(Nc2cccc(C(=O)N3CC[C@@H](O)C3)c2)nc1-c1cnn(C(CC#N)C2CC2)c1` (mixture of isomers) [Example 325, 3-cyclopropyl-3-(4-{2-[(3-{[(3R)-3-hydroxypyrrolidin-1-yl]carbonyl}phenyl)amino]-5-methoxypyrimidin-4-yl}-1H-pyrazol-1-yl)propanenitrile], the IC50 is below 100 nM.

With `N#CCC(C1CC1)n1cc(-c2ccnc(Nc3ccc(C(=O)N4CCC4)cc3)n2)cn1` (racemic) [Example 261, 3-(4-(2-(4-(azetidine-1-carbonyl)phenylamino)pyrimidin-4-yl)-1H-pyrazol-1-yl)-3-cyclopropylpropanenitrile], the IC50 was below 100 nM. Then `N#CCC1(n2cc(-c3ccnc(Nc4ccc(C(=O)NCCO)cc4)n3)cn2)CCN(S(=O)(=O)C2CC2)CC1` [Example 31, 4-(4-(1-(4-(cyanomethyl)-1-(cyclopropylsulfonyl)piperidin-4-yl)-1H-pyrazol-4-yl)pyrimidin-2-ylamino)-N-(2-hydroxyethyl)benzamide], with below 100 nM; and `N#CCC1(n2cc(-c3ccnc(Nc4ccc(C(=O)N5[C@@H]6CC[C@H]5C[C@@H](O)C6)cc4)n3)cn2)CC(C#N)C1` (stereo partly drawn) [Example 300, 3-(cyanomethyl)-3-(4-(2-(4-((3-endo)-3-hydroxy-8-azabicyclo[3.2.1]octane-8-carbonyl)phenylamino)pyrimidin-4-yl)-1H-pyrazol-1-yl)cyclobutanecarbonitrile], with below 100 nM. Take `N#CCC1(n2cc(-c3ccnc(Nc4ccc(-c5cnco5)cc4)n3)cn2)CN(S(=O)(=O)C2CC2)C1` [Example 21, 2-(1-(cyclopropylsulfonyl)-3-(4-(2-(4-(oxazol-5-yl)phenylamino)pyrimidin-4-yl)-1H-pyrazol-1-yl)azetidin-3-yl)acetonitrile]: the IC50 was below 100 nM. Then `CN(C)C(=O)c1cccc(Nc2nccc(-c3cnn(C(CC#N)C4CCCC4)c3)n2)c1` (racemic) [Example 110, 3-(4-(1-(2-cyano-1-cyclopentylethyl)-1H-pyrazol-4-yl)pyrimidin-2-ylamino)-N,N-dimethylbenzamide], with below 100 nM; and `N#CCC(CC1CCN(C(=O)c2ccc(F)cc2F)CC1)n1cc(-c2ccnc(Nc3ccccc3)n2)cn1` (racemic) [Example 4, 4-(1-(2,4-difluorobenzoyl)piperidin-4-yl)-3-(4-(2-(phenylamino)pyrimidin-4-yl)-1H-pyrazol-1-yl)butanenitrile], with below 100 nM; and `N#CCC(C1CCCC1)n1cc(-c2ccnc(Nc3ccc(C(=O)N4CC[C@H](C#N)C4)cc3)n2)cn1` (mixture of isomers) [Example 225, (3S)-1-(4-(4-(1-(2-cyano-1-cyclopentylethyl)-1H-pyrazol-4-yl)pyrimidin-2-ylamino)benzoyl)pyrrolidine-3-carbonitrile], with below 100 nM. In the case of `Cc1nc(-c2ccc(S(=O)(=O)Nc3ccc(Nc4nccc(-c5cnn(C(CC#N)C6CCCC6)c5)n4)cc3)s2)cs1` (racemic) [Example 193, N-(4-(4-(1-(2-cyano-1-cyclopentylethyl)-1H-pyrazol-4-yl)pyrimidin-2-ylamino)phenyl)-5-(2-methylthiazol-4-yl)thiophene-2-sulfonamide], the IC50 was below 100 nM. Then `N#CCC(C1CCCC1)n1cc(-c2ccnc(Nc3cccc(C(=O)NCC4CCOCC4)c3)n2)cn1` (racemic) [Example 153, 3-(4-(1-(2-cyano-1-cyclopentylethyl)-1H-pyrazol-4-yl)pyrimidin-2-ylamino)-N-((tetrahydro-2H-pyran-4-yl)methyl)benzamide], with below 100 nM; and `CCS(=O)(=O)N1CC(CC#N)(n2cc(-c3ccnc(Nc4ccc(C(=O)NC5CCOCC5)cc4)n3)cn2)C1` [Example 259, 4-(4-(1-(3-(cyanomethyl)-1-(ethylsulfonyl)azetidin-3-yl)-1H-pyrazol-4-yl)pyrimidin-2-ylamino)-N-(tetrahydro-2H-pyran-4-yl)benzamide], with below 100 nM. Consider `N#CCC(C1CCCC1)n1cc(-c2ccnc(Nc3ccc(NC(=O)CN4CCC(O)CC4)cc3)n2)cn1` (racemic) [Example 205, N-(4-(4-(1-(2-cyano-1-cyclopentylethyl)-1H-pyrazol-4-yl)pyrimidin-2-ylamino)phenyl)-2-(4-hydroxypiperidin-1-yl)acetamide], for which the IC50 was below 100 nM. Turning to `COc1cccc([C@@H](C)NC(=O)c2cccc(Nc3nccc(-c4cnn(C(CC#N)C5CCCC5)c4)n3)c2)c1` (mixture of isomers) [Example 145, 3-(4-(1-(2-cyano-1-cyclopentylethyl)-1H-pyrazol-4-yl)pyrimidin-2-ylamino)-N—((R)-1-(3-methoxyphenyl)ethyl)benzamide], the IC50 is below 100 nM.

What is called IC50 is the concentration needed to halve the response being measured.
